1 compound from patent US8535897B2, “Assays for non-apoptotic cell death and uses thereof” (The Trustees of Columbia University in the City of New York, priority 2006, dated 2013) can be followed below.

The subject of one experiment is TC32. The experiment can be described thus: Response of tumor cell lines to erastin (dose-response). The following applies: TC 32. In kind it is cell-based. The procedure: (§1) In certain aspects, the invention provides that erastin is lethal to tumor cells with activating mutations in proteins downstream of RAS proteins. Dose-response of 30 tumor cell lines to erastin was measured, and at least 50% inhibition of cell viability in 19 of the 30 tumor cell lines was formed. Numerous sarcoma-derived tumor cell lines were sensitive to erastin, consistent with the fact that erastin was discovered in an engineered tumor cell line created from human fibroblasts. Non-limiting examples include, HT1080 fibrosarcoma cells. HT1080 fibrosarcoma cells, which have a known activating mutation in NRAS, (Plattner, R. et al. Differential contribution of the ERK and JNK mitogen-activated protein kinase cascades to Ras transformation of HT1080 fibrosarcoma and DLD-1 colon carcinoma cells. Oncogene. 18: 1807-17 (1999), were quite sensitive to erastin. In order to determine whether RAS-activated signaling was modulated in cell lines that respond to erastin, the phosphorylation status of ERK1/2 in 12 sarcoma cell lines with a range of sensitivities to erastin was evaluated. In certain aspects, the invention provides a non-zero correlation, such as for example, a correlation coefficient of 0.41, between ERK1/2 phosphorylation status and erastin sensitivity in these cell lines.
(§2) Given that oncogenic RAS activates at least four downstream pathways, analysis was performed to identify which downstream effects were necessary for erastin sensitivity. In certain embodiments, the invention provides that erastin inhibits growth and kills genuine tumor cells with RAS mutations. In other embodiments, the invention provides measures of the dose-response of 29 tumor cell lines to erastin, wherein there is at least 50% inhibition of viability in 18 of the cell lines (Table 4). Numerous sarcoma-derived tumor cell lines were sensitive to erastin, consistent with the fact that erastin was discovered in an engineered tumor cell line created from human fibroblasts.

The test system of a further experiment is TC71. The description is as above. In kind it is cell-based. The following applies: TC 71. As for the experimental part: as §1, §2
The subject of another experiment is EWS502. The experiment is described as above. The following applies: EWS 502. The class given is cell-based. The procedure: as §1, §2
For a further experiment, the system named is HL-60. Described as above. The class given is cell-based. As for the experimental part: as §1, §2
Another experiment has as its system SW872. The experiment is described as above. The class given is cell-based. As to conditions: SW 872. The procedure: as §1, §2
The next experiment deals with SK-ES-1. The experiment is described as above. As to conditions: SICES1. In kind it is cell-based. The procedure:
as §1, §2

In another experiment the test system is SK-N-MC. Described as above. The class given is cell-based. The procedure:
as §1, §2

The subject of the next experiment is U973. The experiment is described as above. In kind it is cell-based. The following applies: U937. As for the experimental part:
as §1, §2

In the next experiment the test system is BJ-TERT/LT/ST/RASV12. The experiment can be described thus: Alamar blue viability assay, engineered tumor cells. In kind it is cell-based, human. As for the experimental part: Erastin was tested in a dilution series in five engineered cell lines derived from primary BJ fibroblasts. Cells were incubated with erastin for two days at 37° C. with 5% CO2, Alamar blue was added (10% final volume) and fluorescence measured (530 nm ex, 590 nm em). Cell lines harboring oncogenic RAS (triangles, circles and x's) were sensitive to erastin, but isogenic lines lacking oncogenic RAS (squares and diamonds) were resistant. Two different clones of engineered tumor cells (circles and triangles) responded similarly.
(a) BJ-TERT/LT/ST/RAS^V12 cells were treated with 9 μM erastin A1 for the indicated length of time, and the number of viable cells determined. (b) 1,000 BJ-TERT/LT/ST/RAS^V12 cells/well in 384-well plates were treated with erastin for 2 d, then alamar blue was added to a final concentration of 10% and the plates were incubated for 16 h. Red fluorescence resulting from reduction of alamar blue was detected on a Victor3 platereader. The percent growth inhibition is shown; error bars represent one SD. […] (c) TEM images (20,000× magnification) of BJ-TERT/LT/ST/RAS^V12 mitochondria after cells were treated with nothing, erastin (37 μM for 10 h) or staurosporine (STS, 1 μM for 5 h), and phase-contrast photograph of BJ-TERT/LT/ST/RAS^V12 cells 24 h after 9 μM erastin A1 treatment is also shown to indicate that even after cell death, nuclei are intact. (d) Anti-oxidants suppress erastin-induced death. BJ-TERT/LT/ST/RAS^V12 cells were treated as indicated and photographed. (e) The number of viable cells was quantified under each condition using a hemacytometer. (f) Iron chelators suppress erastin-induced cell death. Cells were seeded in 384-well plates (6,000 cells/well) and treated with 2-fold dilution series of erastin in the presence of 100 μM desferrioxamine mesylate (DFOM), 100 μM of iron chelator 1a, 100 μM of iron chelator 2, 10 μM or 1 μM of iron chelator 311. After 24 h, alamar blue was added and cell viability assayed. (g, h) Erastin-induced formation of oxidative species. BJ-TERT/LT/ST/RAS^V12 (shown in histogram plots, and in line graph as dark diamonds) or BJ-TERT cells (shown in line graph only, light circles) were treated with 4.6-μM erastin A1 and the level of intracellular oxidative species determined. (i, j) STS, but not erastin, induces PARP1 cleavage (red bands at top) in BJ-TERT/LT/ST/RAS^V12 cells and in A673, HT1080 and HeLa cells. NS: non-specific band. […] Cells were treated with STS or erastin, separated into mitochondrial and cytosolic fractions, and probed for cytochrome c (lower red band) and total VDAC (middle green band, pan-VDAC antibody). (1) Caspase-3 is not cleaved in response to erastin. Cells were treated as indicated and probed with an anti-caspase-3 antibody that recognizes both the full length and the cleaved, active form (lower band). […] ATP levels were measured, viable cells determined by Trypan Blue exclusion and ATP per viable cell determined. Abbreviations: DMSO, dimethylsulfoxide; BHT, butylated hydroxytoluene; TOC, alpha-tocopherol; ERA, erastin A1; CAR, beta-carotene; STS, staurosprine.
(a) Calu-1 lung carcinoma cells harboring oncogenic KRAS were infected with lentivirus containing shRNAs targeting KRAS or GFP. Sequences of shRNAs are indicated by starting nucleotide (nt) in the KRAS mRNA coding sequence. Cells were treated with erastin and viability measured by Trypan Blue exclusion. (b) Knockdown of KRAS was confirmed by western blot. (c,d) A673 cells harboring oncogenic BRAF were infected with lentiviral shRNAs targeting BRAF exon 5 (c) or the 5′ UTR (d), luciferase (LUC)(c) or GFP (d). Cells were treated with erastin and viability measured using Alamar Blue (c) and Trypan Blue (d). (e) Knockdown of BRAF was confirmed by western blot. […] BJ-TERT/LT/ST/RAS^V12 cells were treated with erastin alone or in with a MEK inhibitor U0126 (20 μM), MEK inhibitor I (10 μM) or MEK 1/2 inhibitor (50 μM). After 48 h, viability was determined using Trypan Blue. […]
In general terms: Alamar Blue is a resazurin reagent that responds to reducing activity.

Regarding `CCOc1ccccc1-n1c(C(C)N2CCN(C(=O)COc3ccc(Cl)cc3)CC2)nc2ccccc2c1=O` (stereo not shown) [erastin], the “Erastin Sensitivity (maximum killing induced by erastin)” value is on record as 0.88 in the experiment on TC32; 0.92 in the experiment with TC71; 0.42 in the experiment on EWS502; 0.00 in the experiment with HL-60; 0.00 in the experiment with SW872; 0.96 in the experiment with SK-ES-1. Also, the “Erastin Sensitivity (maximum killing induced by erastin)” value in the experiment with SK-N-MC is given as 0.95; in the experiment on U973, 0.73. Also, the RAS-selective lethality entry in the experiment with BJ-TERT/LT/ST/RASV12 is reported as “at least 16 fold”. Also, in the experiment with BJ-TERT/LT/ST/RASV12 (BJ-TERT/LT/ST vs BJ-TERT/LT/ST/RASV12), the RAS selectivity is reported as over 16.
